Test [1] concerns the target Tyrosine-protein phosphatase non-receptor type 5 (Homo sapiens, UniProt P54829). Kind of test: PTPN5 enzyme inhibition – biochemical, fluorescence intensity, uHTS hits, confirmation (AID 602372). The conditions noted are these: read-out: IC50_Mean. In kind it is functional.
In test [2] the target is Dual specificity protein phosphatase 3 (Homo sapiens, UniProt P51452). Kind of test: VHR phosphatase inhibition, dose response, selectivity assay for STEP inhibitor project, biochemical (AID 602374). The format is functional. The conditions noted are these: read-out: IC50_Mean.
Sequence of Dual specificity protein phosphatase 3 (P51452 whole entry): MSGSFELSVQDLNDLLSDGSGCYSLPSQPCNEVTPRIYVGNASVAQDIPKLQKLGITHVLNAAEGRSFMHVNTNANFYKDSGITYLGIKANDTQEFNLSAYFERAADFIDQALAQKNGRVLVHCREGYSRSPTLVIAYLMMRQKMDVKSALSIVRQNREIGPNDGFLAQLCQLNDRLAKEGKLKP
Test [3] deals with Tyrosine-protein phosphatase non-receptor type 11 (Homo sapiens, UniProt Q06124). Kind of test: PTPN11 enzyme inhibitors – biochemical, selectivity assay for STEP inhibitor project, dose response (AID 602367). The conditions noted are these: read-out: IC50_Mean. The format is functional.
Sequence of Tyrosine-protein phosphatase non-receptor type 11 (Q06124 whole entry): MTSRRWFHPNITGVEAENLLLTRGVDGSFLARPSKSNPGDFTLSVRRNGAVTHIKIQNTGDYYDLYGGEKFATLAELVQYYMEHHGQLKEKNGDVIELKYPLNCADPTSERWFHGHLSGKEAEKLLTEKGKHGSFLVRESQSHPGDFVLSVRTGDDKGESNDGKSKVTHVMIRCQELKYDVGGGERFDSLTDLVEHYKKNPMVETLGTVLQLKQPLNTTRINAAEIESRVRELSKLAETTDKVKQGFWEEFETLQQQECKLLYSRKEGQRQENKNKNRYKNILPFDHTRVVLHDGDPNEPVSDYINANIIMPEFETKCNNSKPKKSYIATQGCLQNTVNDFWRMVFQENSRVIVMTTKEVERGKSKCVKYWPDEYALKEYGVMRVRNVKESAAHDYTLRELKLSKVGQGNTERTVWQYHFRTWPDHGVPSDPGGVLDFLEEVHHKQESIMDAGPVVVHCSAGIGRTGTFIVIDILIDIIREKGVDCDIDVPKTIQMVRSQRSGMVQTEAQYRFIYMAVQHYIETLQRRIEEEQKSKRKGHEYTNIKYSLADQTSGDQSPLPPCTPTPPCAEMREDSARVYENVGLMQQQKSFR
In test [4] the target is T1, Corticotropin-releasing factor receptor 2/Corticotropin-releasing factor-binding protein (Homo sapiens, UniProt P24387+Q13324).
T1 sequence (Q13324 whole entry): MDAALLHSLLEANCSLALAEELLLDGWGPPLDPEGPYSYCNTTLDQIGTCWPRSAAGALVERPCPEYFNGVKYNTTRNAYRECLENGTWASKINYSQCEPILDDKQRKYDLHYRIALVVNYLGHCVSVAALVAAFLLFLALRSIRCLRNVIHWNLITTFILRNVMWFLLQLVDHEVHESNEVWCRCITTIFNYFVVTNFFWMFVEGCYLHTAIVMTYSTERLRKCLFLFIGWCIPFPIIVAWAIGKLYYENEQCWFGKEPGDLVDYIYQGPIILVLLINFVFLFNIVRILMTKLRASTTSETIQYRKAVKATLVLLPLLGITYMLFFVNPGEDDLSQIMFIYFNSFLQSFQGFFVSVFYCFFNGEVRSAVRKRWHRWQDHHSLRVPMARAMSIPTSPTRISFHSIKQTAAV
T1 sequence (P24387 whole entry): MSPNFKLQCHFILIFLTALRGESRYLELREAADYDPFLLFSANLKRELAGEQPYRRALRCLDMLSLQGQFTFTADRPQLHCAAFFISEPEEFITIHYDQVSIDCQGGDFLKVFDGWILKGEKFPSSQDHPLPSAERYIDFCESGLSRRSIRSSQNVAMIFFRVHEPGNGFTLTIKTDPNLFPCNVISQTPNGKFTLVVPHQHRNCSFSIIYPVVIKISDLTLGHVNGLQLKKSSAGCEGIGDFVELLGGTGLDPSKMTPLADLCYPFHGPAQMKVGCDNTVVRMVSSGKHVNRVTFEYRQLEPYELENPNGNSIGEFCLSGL
Kind of test: activators of CRF receptor 2 with binding protein – uHTS hits, confirmation (AID 602473). The format is functional. To be noted: read-out: EC50_Mean.

Test [5] has as its target T2, Sentrin-specific protease 1 (Homo sapiens, UniProt Q9P0U3).
T2 sequence (Q9P0U3 whole entry): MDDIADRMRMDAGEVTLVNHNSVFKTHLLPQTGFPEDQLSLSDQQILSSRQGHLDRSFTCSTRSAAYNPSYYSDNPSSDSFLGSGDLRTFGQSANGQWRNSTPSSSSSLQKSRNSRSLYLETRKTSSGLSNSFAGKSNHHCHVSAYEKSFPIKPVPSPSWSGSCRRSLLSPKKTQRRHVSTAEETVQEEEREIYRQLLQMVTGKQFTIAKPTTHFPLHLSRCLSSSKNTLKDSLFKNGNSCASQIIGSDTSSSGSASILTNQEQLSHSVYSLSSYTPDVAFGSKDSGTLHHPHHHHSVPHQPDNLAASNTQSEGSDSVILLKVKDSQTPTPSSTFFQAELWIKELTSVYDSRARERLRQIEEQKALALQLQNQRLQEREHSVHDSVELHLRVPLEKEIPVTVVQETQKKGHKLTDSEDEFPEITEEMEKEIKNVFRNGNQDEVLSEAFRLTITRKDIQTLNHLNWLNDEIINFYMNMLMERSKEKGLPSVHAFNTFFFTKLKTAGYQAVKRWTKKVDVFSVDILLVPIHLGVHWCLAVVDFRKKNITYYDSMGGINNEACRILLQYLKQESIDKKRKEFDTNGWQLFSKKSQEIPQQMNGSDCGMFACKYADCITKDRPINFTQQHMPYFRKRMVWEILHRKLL
Kind of test: Dose response confirmation of small molecule inhibitors of the catalytic domain of the SUMO protease, SENP1 in a FRET assay. In kind it is functional. To be noted: read-out: IC50_Mean.

Test [6] deals with T2, Sentrin-specific protease 1. Kind of test: SENP1 catalytic domain blockers, concentration series – biochemical, kinetic FRET, dose response (AID 651697). To be noted: read-out: IC50_Mean. The format is functional.
Test [7] concerns the target T3, Sentrin-specific protease 8 (Homo sapiens, UniProt Q96LD8).
T3 sequence (Q96LD8 whole entry): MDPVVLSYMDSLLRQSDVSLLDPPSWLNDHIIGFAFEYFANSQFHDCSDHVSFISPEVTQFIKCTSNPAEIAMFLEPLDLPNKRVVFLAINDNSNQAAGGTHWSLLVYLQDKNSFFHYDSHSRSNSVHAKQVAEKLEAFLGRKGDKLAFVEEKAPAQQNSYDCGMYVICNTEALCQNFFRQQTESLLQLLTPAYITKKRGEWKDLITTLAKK
The format is functional.

For test [8], the target named is Mitochondrial peptide methionine sulfoxide reductase (Bos taurus, UniProt P54149). The format is functional.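 Note: absorbance read-out, biochemical high-throughput dose-response screen for MsrA inhibitors, confirmatory; recombinant bovine MsrA coupled to E. coli TrxB with NADPH and selenocystamine; potency is for inhibitors of MsrA activity on DMSO substrate.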
Sequence of Mitochondrial peptide methionine sulfoxide reductase (P54149 whole entry): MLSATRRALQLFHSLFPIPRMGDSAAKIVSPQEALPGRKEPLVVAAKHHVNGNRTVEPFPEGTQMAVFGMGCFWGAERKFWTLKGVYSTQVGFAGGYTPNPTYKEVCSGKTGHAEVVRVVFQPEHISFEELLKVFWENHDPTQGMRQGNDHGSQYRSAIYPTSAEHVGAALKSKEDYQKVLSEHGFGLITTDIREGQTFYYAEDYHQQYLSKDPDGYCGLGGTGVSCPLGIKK
Test [9] relates to INS1. Kind of test: INS-1E survival protection against cytokine death – cell-based, luminescence, retest, dose response (AID 449756).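 Note: cell death triggered by IL-1 beta plus TNF-alpha plus IFN-gamma mixture; protective hits raise ATP signal compared with cytokine alone wells.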 The conditions noted are these: Rattus norvegicus. In kind it is functional.
Test [10] has as its target T3, Sentrin-specific protease 8. In kind it is functional. This is another data set of the same source.
In test [11] the target is T4, Serine/threonine-protein phosphatase (Candida dubliniensis (strain CD36 / CBS 7987 / NCPF 3949 / NRRLY-17841) (Yeast), UniProt B9W6M3).
T4 sequence (B9W6M3 whole entry): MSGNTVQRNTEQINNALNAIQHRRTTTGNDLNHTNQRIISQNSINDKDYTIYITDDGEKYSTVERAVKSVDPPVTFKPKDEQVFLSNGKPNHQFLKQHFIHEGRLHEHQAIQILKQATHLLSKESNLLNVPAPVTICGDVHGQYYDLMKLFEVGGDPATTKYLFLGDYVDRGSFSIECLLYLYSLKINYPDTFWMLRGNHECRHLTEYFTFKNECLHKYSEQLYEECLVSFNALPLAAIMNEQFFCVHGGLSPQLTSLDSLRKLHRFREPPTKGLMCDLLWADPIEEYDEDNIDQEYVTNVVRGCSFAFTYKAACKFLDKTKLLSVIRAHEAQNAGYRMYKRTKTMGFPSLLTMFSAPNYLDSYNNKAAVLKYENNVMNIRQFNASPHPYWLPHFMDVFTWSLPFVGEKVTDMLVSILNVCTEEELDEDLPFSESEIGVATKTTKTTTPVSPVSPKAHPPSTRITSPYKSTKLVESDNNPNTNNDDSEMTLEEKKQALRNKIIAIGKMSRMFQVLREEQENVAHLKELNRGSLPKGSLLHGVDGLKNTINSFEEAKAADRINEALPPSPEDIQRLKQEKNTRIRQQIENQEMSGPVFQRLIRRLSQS
Kind of test: blockers of CaCl2-induced CDRE-lacZ signaling – S. cerevisiae, luminescence, secondary, dose response (AID 2388).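 Note: yeast reporter cells carrying a calcineurin-responsive lacZ construct stimulated with calcium chloride; luminescent beta-galactosidase reporter signal in whole cells rather than isolated phosphatase activity; potency for inhibition where a drop in reporter signal means calcineurin blockade.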 The format is functional, cell-based.

A short description of test [12]: NIH-3T3 fibroblast cytotoxicity, dose response, cytotoxicity control, cell-based, fluorescence, Alamar Blue, secondary assay (AID 2327).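 Note: NIH-3T3 mouse fibroblasts cultured with fluconazole at 8 µg/mL.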 The format is functional.
Test [13] has as its target ATP-dependent molecular chaperone HSP82 (Candida albicans (strain WO-1) (Yeast), UniProt C4YTQ8). Kind of test: steroid-induced GRE reporter decrease in yeast – S. cerevisiae, luminescence, Hsp90 inhibitor project, dose response (AID 2400).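 Note: beta-galactosidase luminescence from glucocorticoid response element reporter as proxy for Hsp90 function; inhibitor potency where signal loss means Hsp90 inhibition.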 In kind it is functional, cell-based.
Test [14] is described as follows: fluconazole-exposed Candida albicans growth modulators – fluorescence, retest, confirmation (AID 2467). The format is functional, cell-based.
Test [15] addresses T5, Tyrosine-protein phosphatase non-receptor type 22 (Homo sapiens, UniProt Q9Y2R2).
T5 sequence (Q9Y2R2 whole entry): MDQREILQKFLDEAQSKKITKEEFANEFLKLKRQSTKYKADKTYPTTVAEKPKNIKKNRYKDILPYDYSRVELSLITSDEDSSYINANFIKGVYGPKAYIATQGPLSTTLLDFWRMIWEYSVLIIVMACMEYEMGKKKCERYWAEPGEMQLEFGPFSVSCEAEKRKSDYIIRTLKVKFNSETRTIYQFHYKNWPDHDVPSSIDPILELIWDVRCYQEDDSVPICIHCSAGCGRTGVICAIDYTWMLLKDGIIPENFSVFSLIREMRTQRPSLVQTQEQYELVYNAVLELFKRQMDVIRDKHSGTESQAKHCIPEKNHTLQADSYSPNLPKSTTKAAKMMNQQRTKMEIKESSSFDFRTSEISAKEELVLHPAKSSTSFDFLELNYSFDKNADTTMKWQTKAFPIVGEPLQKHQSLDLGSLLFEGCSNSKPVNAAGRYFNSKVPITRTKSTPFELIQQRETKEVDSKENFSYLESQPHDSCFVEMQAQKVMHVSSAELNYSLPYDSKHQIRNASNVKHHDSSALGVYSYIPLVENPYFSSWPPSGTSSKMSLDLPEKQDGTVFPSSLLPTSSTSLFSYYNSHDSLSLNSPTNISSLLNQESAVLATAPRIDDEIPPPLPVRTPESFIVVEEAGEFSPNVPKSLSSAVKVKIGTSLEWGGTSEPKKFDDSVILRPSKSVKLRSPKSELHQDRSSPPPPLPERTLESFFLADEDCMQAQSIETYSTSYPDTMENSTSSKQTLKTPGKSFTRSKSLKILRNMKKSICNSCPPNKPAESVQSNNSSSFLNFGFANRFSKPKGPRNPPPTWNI
Kind of test: PTPN22 enzyme inhibitors – biochemical, fluorescence, LYP catalytic domain, selectivity assay for LMPTP inhibitor project, dose response (AID 652006). The format is functional. The conditions noted are these: read-out: IC50_Mean.

For test [16], the target named is T6, Low molecular weight phosphotyrosine protein phosphatase (Homo sapiens, UniProt P24666).
T6 sequence (P24666 whole entry): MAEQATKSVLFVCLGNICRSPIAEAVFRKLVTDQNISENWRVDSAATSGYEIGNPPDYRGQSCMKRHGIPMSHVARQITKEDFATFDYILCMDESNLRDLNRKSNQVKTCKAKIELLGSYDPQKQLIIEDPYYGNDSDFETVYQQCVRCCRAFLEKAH
The format is functional. To be noted: read-out: IC50_Mean.

For test [17], the target named is T6, Low molecular weight phosphotyrosine protein phosphatase. In kind it is functional. The conditions noted are these: read-out: IC50_Mean. The source holds these as a separate data set.
Test [18] deals with T7, Leucine aminopeptidase (Plasmodium falciparum 3D7, UniProt Q8IL11).
T7 sequence (Q8IL11 whole entry): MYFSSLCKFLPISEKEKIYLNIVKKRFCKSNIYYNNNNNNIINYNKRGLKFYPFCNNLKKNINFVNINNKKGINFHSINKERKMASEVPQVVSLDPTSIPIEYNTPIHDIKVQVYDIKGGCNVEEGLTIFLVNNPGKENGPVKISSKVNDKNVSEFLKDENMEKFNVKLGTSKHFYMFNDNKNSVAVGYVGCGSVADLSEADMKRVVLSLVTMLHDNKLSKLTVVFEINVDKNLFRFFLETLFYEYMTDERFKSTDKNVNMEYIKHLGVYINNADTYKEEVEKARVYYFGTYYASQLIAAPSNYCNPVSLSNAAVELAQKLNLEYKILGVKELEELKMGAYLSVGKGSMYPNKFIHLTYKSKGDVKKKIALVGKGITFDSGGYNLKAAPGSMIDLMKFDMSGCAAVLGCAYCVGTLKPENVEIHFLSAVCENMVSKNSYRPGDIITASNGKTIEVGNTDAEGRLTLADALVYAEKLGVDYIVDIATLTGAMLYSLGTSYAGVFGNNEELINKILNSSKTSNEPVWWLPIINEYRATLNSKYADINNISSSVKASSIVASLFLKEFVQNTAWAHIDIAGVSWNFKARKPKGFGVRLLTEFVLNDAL
Kind of test: P. falciparum M17LAP inhibitors, primary screen, biochemical, fluorogenic H-Leu-NHMec substrate, 1536-well (AID 1619). The format is functional.

Each structure is given as a SMILES string. Calls of active or inactive are those of the source.

Sequence of ATP-dependent molecular chaperone HSP82 (C4YTQ8 whole entry): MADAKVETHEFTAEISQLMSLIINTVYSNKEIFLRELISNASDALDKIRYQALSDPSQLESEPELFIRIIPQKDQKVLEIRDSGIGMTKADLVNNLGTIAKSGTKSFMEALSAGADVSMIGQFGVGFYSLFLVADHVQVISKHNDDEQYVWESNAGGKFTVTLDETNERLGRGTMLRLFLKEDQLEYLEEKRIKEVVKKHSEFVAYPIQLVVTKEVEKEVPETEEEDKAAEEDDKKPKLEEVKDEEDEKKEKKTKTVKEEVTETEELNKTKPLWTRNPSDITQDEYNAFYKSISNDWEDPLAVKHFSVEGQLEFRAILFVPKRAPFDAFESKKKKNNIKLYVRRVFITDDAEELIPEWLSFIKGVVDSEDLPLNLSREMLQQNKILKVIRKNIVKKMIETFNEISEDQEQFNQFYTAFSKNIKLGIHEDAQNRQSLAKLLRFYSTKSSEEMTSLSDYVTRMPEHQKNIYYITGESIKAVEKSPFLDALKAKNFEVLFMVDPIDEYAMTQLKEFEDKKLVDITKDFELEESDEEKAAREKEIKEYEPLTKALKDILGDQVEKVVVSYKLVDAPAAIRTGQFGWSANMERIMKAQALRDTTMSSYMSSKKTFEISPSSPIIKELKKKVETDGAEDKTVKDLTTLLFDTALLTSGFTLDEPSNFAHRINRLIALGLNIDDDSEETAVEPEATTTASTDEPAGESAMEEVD
Sequence of Tyrosine-protein phosphatase non-receptor type 5 (P54829 whole entry): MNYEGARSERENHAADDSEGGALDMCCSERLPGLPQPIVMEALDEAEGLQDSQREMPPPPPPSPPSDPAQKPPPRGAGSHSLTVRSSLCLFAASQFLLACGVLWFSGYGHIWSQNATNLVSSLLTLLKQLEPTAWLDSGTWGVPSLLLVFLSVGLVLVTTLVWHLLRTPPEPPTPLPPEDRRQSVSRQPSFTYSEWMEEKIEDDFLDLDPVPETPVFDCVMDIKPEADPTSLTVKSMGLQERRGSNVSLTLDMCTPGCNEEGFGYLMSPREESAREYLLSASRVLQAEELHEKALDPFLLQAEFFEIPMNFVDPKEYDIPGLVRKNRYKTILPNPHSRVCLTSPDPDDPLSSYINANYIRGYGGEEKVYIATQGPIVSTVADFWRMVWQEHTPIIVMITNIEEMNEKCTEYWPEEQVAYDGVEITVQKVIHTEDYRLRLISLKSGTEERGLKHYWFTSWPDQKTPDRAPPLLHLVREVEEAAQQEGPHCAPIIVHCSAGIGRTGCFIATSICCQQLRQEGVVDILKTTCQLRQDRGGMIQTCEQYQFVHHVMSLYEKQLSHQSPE

In the case of `COCCN(C(=S)Nc1c(C)cc(C)cc1C)C(C)c1cccnc1` (stereo not drawn), the IC50 in test [1] is > 80 µM (inactive); in test [2], 0.696 µM (active); in [3], 1.71 µM (active).
Regarding `CN(C)N=C(S)Nc1ccc2nc(-c3ccccn3)c(-c3ccccn3)nc2c1`, the EC50 in test [4] was > 53 µM (inactive). The results for the IC50 in test [5] and in test [6] were 9.92 µM (active) and 14.3 µM (active), respectively.
The term AC50 denotes the concentration giving half of the maximal activity seen. Consider `CC(=O)NN1C(=O)c2ccc3c4c(ccc(c24)C1=O)C(=O)N(NC(C)=O)C3=O`, for which the figures for the IC50 in [7], in test [8] and in test [10] were 0.0707 µM (active), 76.8 µM (inactive) and 0.445 µM (active), respectively. Also, the AC50 in [9] was 0.652 µM (active).
As to `CCc1cc(-c2nnc(S)n2-c2ccccc2C)cs1`, the EC50 was > 180 µM (inactive) in [11], > 150 µM (inactive) in [12], > 160 µM (inactive) in test [13] and 0.363 µM (active) in test [14].
In the case of `COc1ccc(Nc2nc(NCc3cccs3)nc3ccsc23)cc1OC`, the results for the IC50 in test [15], in test [16] and in test [17] were 22.7 µM (inactive), 16.4 µM (active) and 11.6 µM (active), respectively.
Regarding `Cc1[nH]c(C(=O)N/N=C/c2ccc(C(=O)O)cc2)c(C)c1C(=O)N/N=C/c1ccc(C(=O)O)cc1`, the IC50 is 45.7 µM (active) in test [18] and 114 µM (inactive) in test [8].
For the compound `Nc1ccc(C(=O)N/N=C\c2ccc(OC(=O)c3ccccc3Cl)cc2)cc1`, the EC50 was > 180 µM (inactive) in [11], > 160 µM (inconclusive) in [12], > 160 µM (inactive) in [13] and 0.797 µM (active) in [14].
